Results: patent US10294202B2, “Pyrrolidinones as herbicides” (FMC Corporation, priority 2013, dated 2019)

Legend:
giant foxtail = assay: Test A pre-/postemergence herbicide test; assay type: in vivo, Setaria faberii; conditions: for Foxtail, Giant plant response rating: Preemergence, visual rating on 0 to 100 scale (0 no effect, 100 complete control)
Method in brief: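 Visual 0–100 ratings (100 = complete control) made about 10 days after treatment, greenhouse-held plants compared with untreated controls. Treatments: postemergence sprays on one- to two-leaf plants (2–10 cm tall) and preemergence directed soil sprays after planting in loam–sand, chemicals formulated in non-phytotoxic solvent containing surfactant.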

sedge, umbrella = assay: Test B flooded paddy test; assay type: in vivo, Cyperus difformis; conditions: 250 g ai/ha, Flood; scale of 0 to 100 where 0 is no effect and 100 is complete control
Method in brief: (§1)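 2-leaf plants; flood 3 cm over soil; compound into paddy water; depth held. Greenhouse 13–15 d. Visual rating vs controls, 0 (no effect) to 100 (complete control); dash = not tested.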

barnyardgrass [1] = assay: Test B flooded paddy test; assay type: in vivo, Echinochloa crus-galli; conditions: 250 g ai/ha, Flood; scale of 0 to 100 where 0 is no effect and 100 is complete control
Method in brief: as §1

ryegrass, Italian = assay: Test C pre-/postemergence herbicide test; assay type: in vivo, Lolium multiflorum; conditions: Preemergence; for Plant response rating (scale of 0 to 100), Ryegrass, Italian: 250 g ai/ha
Text: (§2) Seeds of plant species selected from blackgrass (Alopecurus myosuroides), ryegrass, Italian (Italian ryegrass, Lolium multiflorum), wheat (winter wheat, Triticum aestivum), galium (catchweed bedstraw, Galium aparine), corn (Zea mays), crabgrass, large (large crabgrass, Digitaria sanguinalis), foxtail, giant (giant foxtail, Setaria faberii), johnsongrass (Sorghum halepense), lambsquarters (Chenopodium album), morningglory (Ipomoea coccinea), nutsedge, yellow (yellow nutsedge, Cyperus esculentus), pigweed (Amaranthus retroflexus), ragweed (common ragweed, Ambrosia elatior), soybean (Glycine max), barnyardgrass (Echinochloa crus-galli), oilseed rape (Brassica napus), waterhemp (common waterhemp, Amaranthus rudis), kochia (Kochia scoparia), oat, wild (wild oat, Avena fatua), surinam grass (Brachiaria decumbens), foxtail, green (green foxtail, Setaria viridis), goosegrass (Eleusine indica), bromegrass, downy (downy bromegrass, Bromus tectorum), nightshade (eastern black nightshade, Solanum ptycanthum), cocklebur (common cocklebur, Xanthium strumarium), cupgrass, woolly (woolly cupgrass, Eriochloa villosa), bermudagrass (Cynodon dactylon), sunflower, (common oilseed sunflower, Helianthus annuus), Russian thistle (Salsola kali) and velvetleaf (Abutilon theophrasti) were planted into a blend of loam soil and sand and treated preemergence with test chemicals formulated in a non-phytotoxic solvent mixture which included a surfactant. At the same time, plants selected from these crop and weed species and also barley (winter barley, Hordeum vulgare), […]), chickweed (common chickweed, Stellaria media), deadnettle (henbit deadnettle, Lamium amplexicaule), and canarygrass (littleseed canarygrass, Phalaris minor) were planted in pots containing Redi-Earth® planting medium (Scotts Company, 14111 Scottslawn Road, Marysville, Ohio 43041) comprising spaghnum peat moss, vermiculite, wetting agent and starter nutrients and treated with postemergence applications of test chemicals formulated in the same manner. Plants ranged in height from 2 to 18 cm (1- to 4-leaf stage) for postemergence treatments. Treated plants and controls were maintained in a greenhouse for 13 to 15 days, after which time all species were compared to controls and visually evaluated. Plant response ratings, summarized in Table C, are based on a scale of 0 to 100 where 0 is no effect and 100 is complete control. A dash (-) response means no test result.

crabgrass, large = assay: Test C pre-/postemergence herbicide test; assay type: in vivo, Digitaria sanguinalis; conditions: Preemergence; for Plant response rating (scale of 0 to 100), Crabgrass, Large: 250 g ai/ha
Text: as §2

johnsongrass = assay: Test C pre-/postemergence herbicide test; assay type: in vivo, Sorghum halepense; conditions: Preemergence; for Plant response rating (scale of 0 to 100), Johnsongrass: 250 g ai/ha
Text: as §2

barnyardgrass [2] = assay: Test C pre-/postemergence herbicide test; assay type: in vivo, Echinochloa crus-galli; conditions: Preemergence; for Barnyardgrass plant response rating: 31 g ai/ha, scale 0 to 100, 0 is no effect and 100 is complete control; for Plant response rating (scale of 0 to 100; 0 is no effect, 100 is complete control), Barnyardgrass: 250 g ai/ha
Text: as §2

waterhemp = assay: Test C pre-/postemergence herbicide test; assay type: in vivo, Amaranthus rudis; conditions: Preemergence; for Plant response rating (scale of 0 to 100), Waterhemp: 250 g ai/ha
Text: as §2

velvetleaf = assay: Test C pre-/postemergence herbicide test; assay type: in vivo, Abutilon theophrasti; conditions: Preemergence; for Plant response rating (scale of 0 to 100), Velvetleaf: 250 g ai/ha
Text: as §2

ragweed = assay: Test C pre-/postemergence herbicide test; assay type: in vivo, Ambrosia elatior; conditions: Preemergence
Text: as §2

[3] = Postemergence, 125 g ai/ha, 0 to 100 scale, 0 no effect, 100 complete control
[4] = Postemergence, 500 g ai/ha, 0 to 100 scale (0 no effect, 100 complete control)
[5] = preemergence, 500 g ai/ha, 0 to 100 scale
[6] = 31 g ai/ha, scale 0 to 100, 0 is no effect and 100 is complete control
[7] = 125 g ai/ha, scale 0 to 100 (0 no effect, 100 complete control)
[8] = 62 g ai/ha, scale 0 to 100 (0 no effect, 100 complete control)

| Structure (SMILES) | Plant response rating, Foxtail, Giant (giant foxtail; [3]) | Plant response rating, Foxtail, Giant (giant foxtail; [4]) | Foxtail, Giant plant response rating (giant foxtail; 125 g ai/ha) | Plant response rating, Foxtail, Giant (giant foxtail; [5]) | Ryegrass, Italian plant response rating (ryegrass, Italian; [6]) | Plant response rating, Ryegrass, Italian (ryegrass, Italian; [7]) | Plant response rating (scale of 0 to 100), Ryegrass, Italian (ryegrass, Italian) | Crabgrass, Large plant response rating (crabgrass, large; [6]) | Plant response rating, Crabgrass, Large (crabgrass, large; [7]) | Plant response rating (scale of 0 to 100), Crabgrass, Large (crabgrass, large) | Johnsongrass plant response rating (johnsongrass; [6]) | Plant response rating, Johnsongrass (johnsongrass; [7]) | Plant response rating (scale of 0 to 100), Johnsongrass (johnsongrass) | Barnyardgrass plant response rating (barnyardgrass [2]) | Plant response rating, Barnyardgrass (barnyardgrass [2]; 62 g ai/ha, scale 0 to 100) | Plant response rating, Barnyardgrass (barnyardgrass [2]; [7]) | Plant response rating (scale of 0 to 100; 0 is no effect, 100 is complete control), Barnyardgrass (barnyardgrass [2]) | Waterhemp plant response rating (waterhemp; [6]) | Plant response rating, Waterhemp (waterhemp; [7]) | Plant response rating (scale of 0 to 100), Waterhemp (waterhemp) | further results |
| --- | --- | --- | --- | --- | --- | --- | --- | --- | --- | --- | --- | --- | --- | --- | --- | --- | --- | --- | --- | --- | --- |
| O=C1NCC(c2ccc(F)c(C(F)(F)F)c2)C1C(=O)Nc1ccccc1C(F)(F)F (racemic) [Compound 78] | 80 | 80 | 90 | 90 | 0 | 40 | 45 | 95 | 98 | 98 | 0 | 15 | 60 | 60 | 75 | 85 | 95 | 50 | 85 | 85 | Plant response rating, Sedge, Umbrella (sedge, umbrella): 0; Plant response rating, Barnyardgrass (barnyardgrass [1]): 0; Plant response rating, Ryegrass, Italian (ryegrass, Italian; 62 g ai/ha, scale 0 to 100): 40; Plant response rating, Crabgrass, Large (crabgrass, large; 62 g ai/ha, scale 0 to 100): 98; Plant response rating, Johnsongrass (johnsongrass; 62 g ai/ha, scale 0 to 100): 0; Plant response rating, Waterhemp (waterhemp; 62 g ai/ha, scale 0 to 100): 75; Velvetleaf plant response rating (velvetleaf; [6]): 15; Plant response rating, Velvetleaf (velvetleaf; 62 g ai/ha, scale 0 to 100): 15; Plant response rating, Velvetleaf (velvetleaf; [7]): 20; Plant response rating (scale of 0 to 100), Velvetleaf (velvetleaf): 20 |
| O=C1NCC(c2cccc(C(F)F)c2)C1C(=O)Nc1cccc(F)c1F (racemic) [Compound 211] | – | – | – | – | 0 | 40 | 50 | 100 | 95 | 95 | 0 | 30 | 65 | 30 | 65 | 85 | 90 | 85 | 100 | 90 | Plant response rating, Foxtail, Giant (giant foxtail; 125 g ai/ha, visual rating, 0 to 100 scale, 0 no effect, 100 complete control, approximately 10 days, preemergence): 80; Plant response rating, Foxtail, Giant (giant foxtail; Postemergence, 125 g ai/ha, 0 to 100 scale, 0 is no effect, 100 is complete control): 70; Foxtail, Giant plant response rating (0 to 100 scale, 0 is no effect, 100 is complete control) (giant foxtail; Postemergence, 500 g ai/ha): 90; Plant response rating, Foxtail, Giant (giant foxtail; preemergence, 500 g ai/ha, 0 to 100 scale, 0 is no effect and 100 is complete control): 90; Ryegrass, Italian plant response rating (ryegrass, Italian; [8]): 35; Crabgrass, Large plant response rating (crabgrass, large; [8]): 95; Johnsongrass plant response rating (johnsongrass; [8]): 0; Ragweed plant response rating (ragweed; [6]): 0; Ragweed plant response rating (ragweed; [8]): 10; Plant response rating, Ragweed (ragweed; [7]): 85; Plant response rating (scale of 0 to 100), Ragweed (ragweed; 250 g ai/ha): 100; Waterhemp plant response rating (waterhemp; [8]): 75; Velvetleaf plant response rating (velvetleaf; [6]): 0; Velvetleaf plant response rating (velvetleaf; [8]): 10; Plant response rating, Velvetleaf (velvetleaf; [7]): 30; Plant response rating (scale of 0 to 100), Velvetleaf (velvetleaf): 35 |
| O=C1NCC(c2cccc(C(F)(F)F)c2)C1C(=O)Nc1ccccc1F (racemic) [Compound 3] | 60 | 80 | 90 | 90 | – | – | – | – | – | – | – | – | – | – | – | – | – | – | – | – | – |
